Experimental findings from US11787766B2, “Compound having PD-L1 inhibitory activity, preparation method therefor and use thereof” (SHANGHAI ENNOVABIO PHARMACEUTICALS CO., LTD., priority 2017, dated 2023) are described below.

The structures appear in SMILES notation. Bounds are passed on as bounds.

For this experiment, the target named is PD-L1 (Homo sapiens (Human), UniProt Q9NZQ7). Kind of experiment: PD-1/PD-L1 homogeneous time-resolved fluorescence (HTRF) binding assay. The conditions noted are these: Cisbio PD1/PD-L1 binding assay kit. The source says: PD-1/PD-L1 homogeneous time-resolved fluorescence (HTRF) detection technology was used to detect the binding ability of the compound to PD-L1.
Sequence of PD-L1 (Q9NZQ7 19-238): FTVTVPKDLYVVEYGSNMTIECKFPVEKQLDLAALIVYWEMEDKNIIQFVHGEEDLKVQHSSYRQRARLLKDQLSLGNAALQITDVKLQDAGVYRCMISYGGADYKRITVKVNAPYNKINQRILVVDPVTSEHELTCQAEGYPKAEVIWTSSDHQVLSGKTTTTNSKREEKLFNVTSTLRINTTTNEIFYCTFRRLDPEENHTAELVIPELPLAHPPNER
PD1/PD-L1 binding assay kit (Cisbio, Cat #63ADK000CPDEC) was used, which includes two proteins, Tag 1-PD-L1 and Tag 2-PD-1, and two antibodies, Anti-Tag1-Eu^3+ and Anti-Tag2-XL 665. Assay principle: Anti-tag1-Eu^3+ is the HTRF donor, and Anti-Tag2-XL 665 is the HTRF acceptor. When Tag 1-PD-L1 and Tag 2-PD-1 interact, the added HTRF donor and the acceptor are close to each other. After the donor receives the excitation energy, it transfers part of the energy to the acceptor, thus producing 665 nm emission signal. When the compound is added to block the PD1/PD-L1 interaction, only 620 nm emission light was detected. The inhibitory effect of the compound was determined by analyzing the ratio of 665 nm/620 nm. Tag 1-PD-L1 was diluted with Diluent buffer (cat #62DLBDDF) to a working concentration of 10 nM, Tag 2-PD-1 was diluted with Diluent buffer to a working concentration of 500 nM, and Anti-Tag1-Eu^3+ was diluted with detection buffer (cat #62DB1FDG) by 1:100, Anti-Tag2-XL 665 was diluted with detection buffer by 1:20, and the test compound was diluted with Diluent buffer to a final concentration of 2×. In a 384-well plate, 2 μL of compound was added to each well, and then 4 μL of Tag 1-PD-L1, 4 μL of Tag 2-PD-1 were added and incubated at room temperature for 15 minutes. 5 μL Anti-Tag1-Eu^3+ and 5 μL Anti-Tag2-XL 665 were added and incubated overnight at room temperature, and detected with BioTek Synergy™ Neo2 Multifunctional Microplate Reader to obtain the ratio of 665 nm/620 nm. The IC50 curve was fitted by GraphPad Prism 5.02.
For the compound `COc1nc(OCc2cccc(-c3cccc(COc4ccc(CN5CC(C(N)=O)C5)c(OC)n4)c3C)c2C)ccc1CN1CC(C(N)=O)C1` [Compound 63], the 50% inhibitory concentration (IC50) (in general, the concentration needed to halve the response being measured) was under 0.01 µM.
As for `COc1nc(OCc2cccc(-c3cccc(COc4ccc(CN5C[C@H](O)[C@@H](O)C5)c(OC)n4)c3Cl)c2Cl)ccc1CN1C[C@H](O)[C@@H](O)C1` [Compound 71], the IC50 is under 0.01 µM.
As to `COc1nc(OCc2cccc(-c3cccc(COc4ccc(CN5CCCC5CC(=O)O)c(OC)n4)c3C)c2C)ccc1CN1CCCC1CC(=O)O` (stereo not shown) [Compound 39], the IC50 lay within 0.01 to 0.1 µM.
Next, `COc1nc(OCc2sc(C)c(COc3ccc(CNCCNC(C)=O)c(OC)n3)c2C)ccc1CNCCNC(C)=O` [Compound 40]: over 1 µM; `COc1nc(OCc2cccc(-c3cccc(COc4ccc(CN5CC[C@H](NC(C)=O)C5)c(OC)n4)c3C)c2C)ccc1CN1CC[C@H](NC(C)=O)C1` [Compound 54]: 0.01 to 0.1 µM.
Next, `COc1nc(OCc2cccc(-c3cccc(COc4ccc(CN5CC[C@H](O)C5)c(OC)n4)c3Cl)c2Cl)ccc1CN1CC[C@H](O)C1` [Compound 62]: under 0.01 µM; `COc1nc(OCc2cccc(COc3ccc(CNCCNC(C)=O)c(OC)n3)n2)ccc1CNCCNC(C)=O` [Compound 18, N,N-((((((pyridine-2,6-diyl-bis (methylene))bis (oxo))bis (2-methoxypyridine-6,3-diyl))bis (methylene))bis (azetanediyl))bis (ethane-2,1-diyl)) diacetamide]: over 1 µM; `COc1nc(OCc2cccc(-c3cccc(COc4ccc(CNCC(N)C(F)(F)F)c(OC)n4)c3Cl)c2Cl)ccc1CNCC(N)C(F)(F)F` (stereo not shown) [Compound 82]: 0.01 to 0.1 µM.
On to `CC(=O)NCCNCc1cc(Cl)c2nc(-c3cccc(-c4cccc(-c5nc6c(Cl)cc(CNCCNC(C)=O)cn6n5)c4C)c3C)nn2c1` [Compound 45], for which the IC50 was under 0.01 µM.
Consider `Cc1c(COc2ccc3[nH]c(CO)cc3n2)cccc1-c1cccc(COc2ccc3[nH]c(CO)cc3n2)c1C` [Compound 32], for which the half-maximal inhibitory concentration (IC50) is over 1 µM.
Next, `CC(=O)NCCNCc1cc2nc(OCc3cccc(-c4cccc(COc5ccc6[nH]c(CNCCNC(C)=O)cc6n5)c4C)c3C)ccc2[nH]1` [Compound 34]: 0.01 to 0.1 µM.
Then `CNC(=O)CNCc1ccc(OCc2cccc(-c3cccc(COc4ccc(CNCC(=O)NC)c(OC)n4)c3Cl)c2Cl)nc1OC` [Compound 77], with under 0.01 µM; and `COc1nc(OCc2cccc(-c3cccc(COc4ccc(CN[C@H](C(=O)O)[C@@H](C)O)c(OC)n4)c3C)c2C)ccc1CN[C@H](C(=O)O)[C@@H](C)O` [Compound 51], with under 0.01 µM; and `COc1nc(OCc2cccc(-c3cccc(COc4ccc(CN5C[C@@H](O)C[C@H]5C(=O)O)c(OC)n4)c3C)c2C)ccc1CN1CC[C@H](O)C1` [Compound 47], with under 0.01 µM.
Then `COc1nc(OCc2cccc(-c3cccc(COc4ccc(CNCCNC(C)=O)c(OC)n4)c3C)c2)ccc1CNCCNC(C)=O` [Compound 28], with 0.01 to 0.1 µM; and `COc1nc(OCc2cccc(-c3ccccc3)c2C)ccc1CN` [Compound 23], with 0.1 to 1 µM; and `COc1nc(OCc2cccc(-n3nc(C)c(COc4ccc(CNCCNC(C)=O)c(OC)n4)c3C)c2C)ccc1CNCCNC(C)=O` [Compound 29], with over 1 µM.
With `COc1nc(OCc2cccc(-c3cccc(COc4ccc(CN5C[C@@H](O)C[C@H]5C(=O)O)c(OC)n4)c3Cl)c2Cl)ccc1CN1C[C@@H](O)C[C@H]1C(=O)O` [Compound 46], the IC50 was under 0.01 µM.
Then `COc1nc(OCc2cccc(-c3cccc(COc4ccc(CNCC(C)(C)O)c(OC)n4)c3C)c2C)ccc1CNCC(C)(C)O` [Compound 20], with 0.01 to 0.1 µM; and `COc1nc(OCc2cccc(-c3cccc(COc4ccc(CN5CCCCC5C(=O)O)c(OC)n4)c3Cl)c2Cl)ccc1CN1CCCCC1C(=O)O` (stereo not shown) [Compound 70], with under 0.01 µM.
Next, `COc1nc(OCc2cccc(-c3cccc(COc4ccc(CNCCNC(C)=O)c(OC)n4)c3Cl)c2Cl)ccc1CNCCNC(C)=O` [Compound 43]: under 0.01 µM; `COc1nc(OCc2cccc(-c3cccc(COc4ccc(CN5CC(O)C(CC#N)C5)c(OC)n4)c3C)c2C)ccc1CN1CC(O)C(CC#N)C1` (stereo not shown) [Compound 65]: under 0.01 µM; `COc1nc(OCc2cccc(-c3cccc(CO)c3C)c2C)ccc1CNC(=O)C(F)(F)F` [Compound 1, 2,2,2-trifluoro-N-((6-((3′-(hydroxymethyl)-2,2′-dimethyl-[1,1′-biphenyl]-3-yl)methoxy)-2-methoxypyridin-3-yl)methyl)acetamide]: over 1 µM.
Next, `COc1nc(OCc2cccc(-c3cccc(COc4ccc(CNC(CO)CO)c(OC)n4)c3Cl)c2Cl)ccc1CNC(CO)CO` [Compound 68]: under 0.01 µM; `COC(=O)[C@@H]1C[C@H](O)CN1Cc1ccc(OCc2cccc(-c3cccc(COc4ccc(CN5C[C@@H](O)C[C@H]5C(=O)OC)c(OC)n4)c3C)c2C)nc1OC` [Compound 41]: 0.01 to 0.1 µM.
